{
  "source": "patent US20260115250A1",
  "about": "“METHODS OF TREATING AGE-RELATED MACULAR DEGENERATION” (Character Biosciences, Inc., priority 2022, published 2026)",
  "key": {"ARPE-19 cells [1]": {"tested_on": "ARPE-19 cells", "assay": "ARPE-19 cell lysis (Sytox Green)", "format": "cell-based, human", "details": "3.16-100 μM peptide, 2 h"}, "[2]": {"assay": "peptide binding to non-oxidized and oxidized lipids (SPR)", "details": "immobilized peptide; RU normalized to DMPC", "experimental": "FIGS. 25A-25O show peptide binding activity to non-oxidized and oxidized lipids via SPR for indicated peptides. Peptides were reconstituted to 50 μg/mL in 10 mM acetate buffer, pH 4.5 and immobilized to ˜200 RU on a CM5 chip via amine coupling. Non-oxidized lipids (DMPC & POPC) and oxidized lipids (POVPC & KOdiA-PC) were diluted to 100 µM in HBS-EP running buffer and exposed to the chip for binding (n=3) at a flow rate of […] for 120 seconds. The surface was regenerated with 20% EtOH. T-001 served as a positive control and T-031 served as a negative control on each chip. For each peptide, the RU response for all lipids was normalized to the DMPC RU values."}, "ARPE-19 cells [3]": {"tested_on": "ARPE-19 cells", "assay": "ARPE-19 GAG-dependent cholesterol import (with or without heparin)", "format": "cell-based, human", "details": "ARPE-19, 10 μM peptide", "experimental": "ARPE-19 cells were seeded on 96-well plates at 25,000 cells per well and grown to confluence. A 2× solution of 500 μM DMPC and 50 μM BODIPY-Cholesterol with or without 100 µg/mL heparin was prepared in serum free DMEM: F12. Peptides were diluted to 20 μM in serum free DMEM: F12 (a 2× solution). Peptides were added to lipid solution in equal parts (60 μL each) and incubated for 1 hour at 37° C. ARPE-19 cells were serum starved in serum free DMEM: F12 for 1 hour at 37° C. Peptide: Lipid complexes (100 μL total volume per well) were transferred to ARPE-19 cells for 2 hours at 37° C. Cells were washed, fixed, and intracellular fluorescence was read on Promega GloMax at 475 nm excitation, 500-550 emission. Fluorescence values were background corrected from no treatment conditions. Data are presented ±SD for 2 runs."}, "[4]": {"assay": "DMPC solubility assay, 0.5 mM DMPC (turbidity reduction)", "format": "biochemical", "method_in_brief": "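Peptides (100 μM final, or 3.16-100 μM for titrations) incubated with 0.5 mM DMPC in water for 15 minutes at room temperature. Turbidity read as absorbance at 405 nm; EC50 from non-linear regression, mean+SD over two runs.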"}, "HepG2 cells": {"tested_on": "HepG2 cells", "assay": "HepG2 GAG dependent cholesterol import (with or without heparin)", "format": "cell-based", "details": "HepG2, 10 μM peptide, with or without 100 μg/mL heparin", "experimental": "HepG2 cells were seeded on 96-well plates at 10,000 cells per well and grown to confluence. A 2× solution of 500 μM DMPC and 50 μM BODIPY-Cholesterol with or without 100 μg/mL heparin was prepared in serum free EMEM. Peptides were diluted to 20 μM in serum-free EMEM (a 2× solution). Peptides were added to lipid solution in equal parts (60 μL each) and incubated for 1 hour at 37° C. HepG2 cells were serum starved in serum-free EMEM for 1 hour at 37° C. Peptide: Lipid complexes (100 μL total volume per well) were transferred to HepG2 cells for 2 hours at 37° C. Cells were washed, fixed, and intracellular fluorescence was read on Promega GloMax at 475 nm excitation, 500-550 emission. Fluorescence values were background corrected from no treatment conditions. Data are presented ±SD for 2 runs."}},
  "note": "Peptide text beside a SMILES is read from it.",
  "data": [
    {"compound": "CC[C@H](C)[C@H](NC(=O)CNC(=O)[C@H](CO)NC(=O)[C@@H](NC(=O)[C@H](Cc1c[nH]c2ccccc12)NC(=O)[C@H](Cc1c[nH]cn1)NC(=O)[C@H](CCC(=O)O)NC(=O)[C@H](Cc1ccccc1)NC(=O)[C@H](CCCNC(=N)N)NC(=O)[C@H](CC(C)C)NC(=O)[C@H](CC(C)C)NC(=O)[C@H](CCCNC(=N)N)NC(=O)[C@H](CCCCN)NC(=O)[C@H](CCCNC(=N)N)NC(=O)[C@H](CC(C)C)NC(=O)[C@H](CCCCN)NC(=O)[C@H](CCCNC(=N)N)NC(=O)[C@H](CC(C)C)NC(=O)[C@@H](N)Cc1c[nH]cn1)[C@@H](C)CC)C(=O)N[C@@H](Cc1ccc(O)cc1)C(=O)N[C@@H](CO)C(=O)N[C@@H](CCC(=O)O)C(=O)N[C@@H](CS)C(=O)N[C@@H](CCCCN)C(=O)N[C@@H](Cc1c[nH]cn1)C(=O)N[C@@H](CC(C)C)C(=O)N[C@H](C(=O)N[C@@H](CCC(N)=O)C(=O)N[C@@H](CCC(=O)O)C(=O)O)[C@@H](C)CC", "note": "[T-025] (H-HLRKLRKRLLRFEHWISGIYSECKHLIQE-OH; N-terminus and C-terminus assumed)", "values": [
      {"measurement": "EC50", "setting": "ARPE-19 cells [1]", "value": 144, "unit": "µM"},
      {"measurement": "binding to oxidized lipids relative to DMPC", "setting": "[2]", "value": "binding to at least one oxidized lipid that was equivalent or improved to binding against DMPC"},
      {"measurement": "GAG dependence of cholesterol import", "setting": "ARPE-19 cells [3]", "value": "rely on GAG binding for cholesterol import activity"},
      {"measurement": "EC50", "setting": "[4]; 3.16-100 μM peptides, 15 minutes", "value": 25.3, "unit": "µM"},
      {"measurement": "DMPC solubilizing activity", "setting": "[4]; FIGS. 2A-2D and 3A-3C", "value": "significant activity"},
      {"measurement": "GAG dependence of cholesterol import", "setting": "HepG2 cells", "value": "rely on GAG binding for cholesterol import activity"}
    ]}
  ]
}
